Results as given in paper PMC3592886, “Utilization of Quantitative In Vivo Pharmacology Approaches to Assess Combination Effects of Everolimus and Irinotecan in Mouse Xenograft Models of Colorectal Cancer” (PLoS ONE, 2013).
Where two headings read alike, the source gives them in different places. Marks after values point to notes of the source that are not given here.

What was measured:
[1] = tested on: HT29 tumor xenografts; experiment: Therapeutic study and tumor growth modeling, HT29 tumor xenografts; type: in vivo, mice
Method: For tumor bearing studies, cells were harvested and resuspended in a 1∶1 mixture of serum-free RPMI and Matrigel (BD Bioscience). One million cells were injected subcutaneously into each rear flank of mice. Tumor volumes, measured by digital calipers, were calculated by V (mm^3) = length x (width)^2 x 0.5236.
When HT29 and HCT116 tumors reached an average volume of ∼325 mm^3 animals were randomized into four treatment groups (n = 9–10 mice per group): (i) vehicles, (ii) 5 mg/kg everolimus (RAD) by oral gavage (PO) daily, (iii) 10 mg/kg irinotecan (IRI) once weekly by intravenous (iv) tail vein injection, and (iv) a combination of RAD and IRI. Everolimus, diluted in sterile water, and irinotecan, diluted in sterile 0.9% saline, were administered at 4 mL/kg. Animals were treated for 28 days. Tumor volumes and body weights were measured 2–3 times weekly. On day 28 of treatment 3–6 animals per group were sacrificed, approximately 24 hours following everolimus treatment, and tumors harvested for metabolomic analysis.
Data from the in vivo study was modeled to assess the therapeutic benefit of adding everolimus to irinotecan. The model used was similar to a previously published model for assessing combination therapy. Some modifications were made and details of the model can be found in Supplement S1 (section SA.3.) and Supplement S2. All modeling was performed on individual animal tumor volume data and modeled with SAAM II version 2.1. […]
are presented in Tables 1 and 2 in Supplement B. Individual fits of the model to the data can also be found in Supplement B. The average growth terms for each tumor type were then fixed at the average parameter value and used to determine the single agent effects (kx) of each compound by fitting the following equation: […] where cx(t) is the concentration of drug x with respect to time. Individual tumors were modeled and the average value of kx determined (Supplement B Tables 1 & 2) for each single agent treatment. This value was used to fit the following equation to the combination tumor growth data to determine the degree of interaction between the two drugs.
, the interaction term, was determined for each individual tumor for each tumor type and the data is presented in Table 2 in the main text and individual fits can be found in Supplement B.
We determined that values greater than 1.3 are synergistic, between 1.3 and 0.7 are additive, between 0.7 and 0 are less than additive, and negative values for are antagonistic. These ranges were selected based on the model fits. The CV% for the model fits ranged from 15 to 50 with an average CV% of approximately 30%. Therefore we assume an average variance of 30% making the additive range from 1.3 to 0.7 (1 + 30% and 1- 30%). […]

[2] = Human, cited from earlier work
[3] = 10 mg daily oral, steady-state, ref 25

Structure (SMILES): CO[C@H]1C[C@@H]2CC[C@@H](C)[C@@](O)(O2)C(=O)C(=O)N2CCCC[C@H]2C(=O)O[C@H]([C@H](C)C[C@@H]2CC[C@@H](OCCO)[C@H](OC)C2)CC(=O)[C@H](C)/C=C(\C)[C@@H](O)[C@@H](OC)C(=O)[C@H](C)C[C@H](C)/C=C/C=C/C=C/1C [Everolimus, 40-O-(2-hydroxyethyl)-rapamycin]
- k2 (SD), single agent effect ([1]; HT29 (BRAF and PIK3CA mutant), RAD): 0.000263 (0.00015) mL/ng*day-1
- average tumor growth inhibition, TGI ([1]; HT29 xenografts, 5 mg/kg everolimus PO daily, 10 mg/kg irinotecan iv once weekly, or combination, 28 days): 40%
- AUC0→t ([2]; 5 mg daily oral, ref 25): 238 ± 77 ng·h/mL
- Cmin ([2]; 5 mg daily oral, ref 25): ^†5.4 ng/mL
- AUC0→t ([2]; 5 mg daily oral, ref 26): 543 ± 189 ng·h/mL
- Cmin ([2]; 5 mg daily oral, steady-state, estimated from graph in reference): ∼12–14^bd ng/mL
- Cmax ([2]; 5 mg daily oral, steady-state): 32±9 ^b ng/mL
- AUC0→t ([2]; 10 mg daily oral, ref 25): 514 ± 231 ng·h/mL
- AUC0→t ([2]; 10 mg daily oral, ref 26): 711 ± 113 ng·h/mL
- Cmin ([2]; 10 mg daily oral, steady-state, estimated from graph in reference): ∼20^bd ng/mL
- Cmax [2, 3]: 61±17 ^b ng/mL
- Cmin [2, 3]: 13.3 ^b ng/mL
- Cmax ([2]; 10 mg daily oral, steady-state, ref 26): 66±1.4 ^b ng/mL
